Key:
Experiment in all cases: fluorogenic hydrolysis assay, crude supernatant
Assay type in all cases: biochemical
Conditions in all cases: 150 µM substrate, 50 mM acetate buffer pH 4.5, 25 °C
endoglucanase A = target: T1, endoglucanase A (Aspergillus niger, UniProt A2R322)
T1 construct: gene eglA; codon-optimised gene secreted by Yarrowia lipolytica strain JMY4343; crude supernatant; 26 kDa on SDS-PAGE

endo-β-1,4-xylanase B = target: T2, endo-β-1,4-xylanase B (Aspergillus niger, UniProt A2Q7I0)
T2 construct: gene xlnB; codon-optimised gene secreted by Yarrowia lipolytica strain JMY4346; crude supernatant; 22 kDa on SDS-PAGE

endo-β-1,4-xylanase C = target: T3, endo-β-1,4-xylanase C (Aspergillus niger, UniProt A2QFV7)
T3 construct: gene xlnC; codon-optimised gene secreted by Yarrowia lipolytica strain JMY4510; crude supernatant

T2 sequence (A2Q7I0 19-225): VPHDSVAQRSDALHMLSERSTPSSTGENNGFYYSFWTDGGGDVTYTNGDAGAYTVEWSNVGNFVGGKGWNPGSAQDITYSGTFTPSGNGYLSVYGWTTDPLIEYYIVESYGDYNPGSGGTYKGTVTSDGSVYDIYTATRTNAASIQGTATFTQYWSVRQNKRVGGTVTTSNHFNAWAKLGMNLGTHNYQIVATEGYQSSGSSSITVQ
T1 sequence (A2R322 17-239): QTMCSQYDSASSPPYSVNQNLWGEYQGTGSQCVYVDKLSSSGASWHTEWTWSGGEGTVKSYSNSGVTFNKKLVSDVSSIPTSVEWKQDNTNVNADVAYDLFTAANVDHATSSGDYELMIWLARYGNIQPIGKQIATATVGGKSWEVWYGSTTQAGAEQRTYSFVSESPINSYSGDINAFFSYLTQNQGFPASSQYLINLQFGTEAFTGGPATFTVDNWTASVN

Row | SMILES | fluorogenic hydrolysis assay, crude supernatant (endoglucanase A) | fluorogenic hydrolysis assay, crude supernatant (endo-β-1,4-xylanase B) | fluorogenic hydrolysis assay, crude supernatant (endo-β-1,4-xylanase C)
1 | O=c1cc(CS(=O)(=O)O)c2cc(F)c(O[C@@H]3O[C@H](CO)[C@@H](O[C@@H]4O[C@H](CO)[C@@H](O)[C@H](O)[C@H]4O)[C@H](O)[C@H]3O)c(F)c2o1 [β-D-cellobioside-6,8-difluoro-7-hydroxycoumarin-4-methansulfonate] | JMY4343 (egla) displayed a low activity with this substrate | – | –
2 | O=c1cc(CS(=O)(=O)O)c2cc(F)c(O[C@@H]3OC[C@@H](O[C@@H]4OC[C@@H](O)[C@H](O)[C@H]4O)[C@H](O)[C@H]3O)c(F)c2o1 [β-D-xylobioside-6,8-difluoro-7-hydroxycoumarin-4-methansulfonate] | – | The JMY4346 (xlnb) and JMY4510 (xlnc) strains exhibited similar levels of endo-β-1,4-xylanase activity | The JMY4346 (xlnb) and JMY4510 (xlnc) strains exhibited similar levels of endo-β-1,4-xylanase activity
